From PubChem BioAssay (NCI)
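Growth conditions: 96-well plates. Treatment: test compound, 48 hours, 5 concentrations. Analysis: linear interpolation between bracketing concentrations; unreached endpoints set to highest concentration. TGI denotes the concentration required for complete inhibition of growth.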

Assays:
Assay in all cases: inhibition of tumour cell growth, NCI panel, 48 h
TK-10 renal = test system: TK-10 renal
MDA-N = test system: MDA-N
CCRF-CEM leukemia = test system: CCRF-CEM leukemia
K-562 leukemia = test system: K-562 leukemia
SF-539 CNS = test system: SF-539 CNS
IGROV1 ovarian = test system: IGROV1 ovarian
RPMI-8226 leukemia = test system: RPMI-8226 leukemia
HOP-92 NSCLC = test system: HOP-92 NSCLC
A549 NSCLC = test system: A549 NSCLC
SK-MEL-2 melanoma = test system: SK-MEL-2 melanoma
PC-3 prostate = test system: PC-3 prostate
KM12 colon = test system: KM12 colon
OVCAR-4 ovarian = test system: OVCAR-4 ovarian
T-47D breast = test system: T-47D breast
UACC-257 melanoma = test system: UACC-257 melanoma
MCF7 breast = test system: MCF7 breast
MOLT-4 leukemia = test system: MOLT-4 leukemia
MALME-3M melanoma = test system: MALME-3M melanoma
SK-OV-3 ovarian = test system: SK-OV-3 ovarian
NCI-H23 lung = test system: NCI-H23 lung
HCT-116 colon = test system: HCT-116 colon
SN12C renal = test system: SN12C renal
CAKI-1 renal = test system: CAKI-1 renal
SF-268 CNS = test system: SF-268 CNS
COLO 205 colon = test system: COLO 205 colon
DU-145 prostate = test system: DU-145 prostate
SW-620 colon = test system: SW-620 colon
ACHN renal = test system: ACHN renal
SK-MEL-28 melanoma = test system: SK-MEL-28 melanoma
U251 CNS = test system: U251 CNS
NCI-H460 lung = test system: NCI-H460 lung
EKVX NSCLC = test system: EKVX NSCLC
786-0 renal = test system: 786-0 renal
OVCAR-3 ovarian = test system: OVCAR-3 ovarian
NCI/ADR-RES ovarian = test system: NCI/ADR-RES ovarian
MDA-MB-231 breast = test system: MDA-MB-231 breast
SNB-75 CNS = test system: SNB-75 CNS
HCC-2998 colon = test system: HCC-2998 colon
OVCAR-8 ovarian = test system: OVCAR-8 ovarian
SF-295 CNS = test system: SF-295 CNS
MDA-MB-435 = test system: MDA-MB-435
NCI-H226 lung = test system: NCI-H226 lung
UO-31 renal = test system: UO-31 renal
HCT-15 colon = test system: HCT-15 colon
LOX IMVI melanoma = test system: LOX IMVI melanoma
UACC-62 melanoma = test system: UACC-62 melanoma
RXF 393 renal = test system: RXF 393 renal
OVCAR-5 ovarian = test system: OVCAR-5 ovarian
SNB-19 CNS = test system: SNB-19 CNS
HL-60(TB) leukemia = test system: HL-60(TB) leukemia
M14 melanoma = test system: M14 melanoma
SK-MEL-5 melanoma = test system: SK-MEL-5 melanoma
HOP-62 NSCLC = test system: HOP-62 NSCLC
HT29 colon = test system: HT29 colon
SR leukemia = test system: SR leukemia
HS 578T breast = test system: HS 578T breast
BT-549 breast = test system: BT-549 breast
NCI-H522 lung = test system: NCI-H522 lung

For Nc1ncnc2c1ncn2C1C=CC(COS(N)(=O)=O)C1 (configuration not stated), the TGI (TK-10 renal) was greater than 100 µM, the TGI (MDA-N) was greater than 100 µM and the TGI (CCRF-CEM leukemia) was greater than 100 µM. For the same compound, the TGI (K-562 leukemia) was greater than 100 µM, the TGI (SF-539 CNS) was 7.12 µM and the TGI (IGROV1 ovarian) was greater than 100 µM. For the same compound, the TGI (RPMI-8226 leukemia) was greater than 100 µM, the TGI (HOP-92 NSCLC) was 87.3 µM and the TGI (A549 NSCLC) was greater than 100 µM. For the same compound, the TGI (SK-MEL-2 melanoma) was greater than 100 µM, the TGI (PC-3 prostate) was greater than 100 µM and the TGI (KM12 colon) was greater than 100 µM. The TGI (OVCAR-4 ovarian) was greater than 100 µM, the TGI (T-47D breast) was greater than 100 µM and the TGI (UACC-257 melanoma) was greater than 100 µM. The TGI (MCF7 breast) was greater than 100 µM, the TGI (MOLT-4 leukemia) was greater than 100 µM and the TGI (MALME-3M melanoma) was greater than 100 µM. It also gave a TGI (SK-OV-3 ovarian) greater than 100 µM, a TGI (NCI-H23 lung) of 82.1 µM and a TGI (HCT-116 colon) greater than 100 µM. The TGI (SN12C renal) was greater than 100 µM, the TGI (CAKI-1 renal) was 57.6 µM and the TGI (SF-268 CNS) was greater than 100 µM. It also gave a TGI (COLO 205 colon) greater than 100 µM, a TGI (DU-145 prostate) greater than 100 µM and a TGI (SW-620 colon) greater than 100 µM. It also gave a TGI (ACHN renal) greater than 100 µM, a TGI (SK-MEL-28 melanoma) greater than 100 µM and a TGI (U251 CNS) greater than 100 µM. For the same compound, the TGI (NCI-H460 lung) was greater than 100 µM, the TGI (EKVX NSCLC) was greater than 100 µM and the TGI (786-0 renal) was greater than 100 µM. For the same compound, the TGI (OVCAR-3 ovarian) was greater than 100 µM, the TGI (NCI/ADR-RES ovarian) was greater than 100 µM and the TGI (MDA-MB-231 breast) was greater than 100 µM. It also gave a TGI (SNB-75 CNS) greater than 100 µM, a TGI (HCC-2998 colon) greater than 100 µM and a TGI (OVCAR-8 ovarian) greater than 100 µM. It also gave a TGI (SF-295 CNS) greater than 100 µM, a TGI (MDA-MB-435) greater than 100 µM and a TGI (NCI-H226 lung) greater than 100 µM. The TGI (UO-31 renal) was greater than 100 µM, the TGI (HCT-15 colon) was greater than 100 µM and the TGI (LOX IMVI melanoma) was 37.6 µM. It also gave a TGI (UACC-62 melanoma) greater than 100 µM, a TGI (RXF 393 renal) greater than 100 µM and a TGI (OVCAR-5 ovarian) greater than 100 µM. The TGI (SNB-19 CNS) was greater than 100 µM, the TGI (HL-60(TB) leukemia) was 30.1 µM and the TGI (M14 melanoma) was greater than 100 µM. For the same compound, the TGI (SK-MEL-5 melanoma) was greater than 100 µM, the TGI (HOP-62 NSCLC) was greater than 100 µM and the TGI (HT29 colon) was greater than 100 µM. For the same compound, the TGI (SR leukemia) was greater than 100 µM and the TGI (HS 578T breast) was greater than 100 µM.

In the case of COC(=O)c1ccc(COC(=O)N2C=CCC2C(=O)O)cc1 (configuration not stated), the TGI (TK-10 renal) is reported as greater than 100 µM, the TGI (MDA-N) is reported as greater than 100 µM and the TGI (K-562 leukemia) is reported as greater than 100 µM. For the same compound, the TGI (SF-539 CNS) was greater than 100 µM, the TGI (IGROV1 ovarian) was greater than 100 µM and the TGI (RPMI-8226 leukemia) was greater than 100 µM. The TGI (HOP-92 NSCLC) was greater than 100 µM, the TGI (A549 NSCLC) was greater than 100 µM and the TGI (SK-MEL-2 melanoma) was greater than 100 µM. It also gave a TGI (PC-3 prostate) greater than 100 µM, a TGI (KM12 colon) greater than 100 µM and a TGI (UACC-257 melanoma) greater than 100 µM. The TGI (MCF7 breast) was greater than 100 µM, the TGI (MOLT-4 leukemia) was greater than 100 µM and the TGI (MALME-3M melanoma) was greater than 100 µM. For the same compound, the TGI (SK-OV-3 ovarian) was greater than 100 µM, the TGI (NCI-H23 lung) was greater than 100 µM and the TGI (SN12C renal) was greater than 100 µM. For the same compound, the TGI (CAKI-1 renal) was greater than 100 µM, the TGI (SF-268 CNS) was greater than 100 µM and the TGI (COLO 205 colon) was greater than 100 µM. The TGI (DU-145 prostate) was greater than 100 µM, the TGI (SW-620 colon) was greater than 100 µM and the TGI (BT-549 breast) was greater than 100 µM. For the same compound, the TGI (ACHN renal) was greater than 100 µM, the TGI (SK-MEL-28 melanoma) was greater than 100 µM and the TGI (U251 CNS) was greater than 100 µM. For the same compound, the TGI (NCI-H460 lung) was greater than 100 µM, the TGI (786-0 renal) was greater than 100 µM and the TGI (OVCAR-3 ovarian) was greater than 100 µM. The TGI (NCI/ADR-RES ovarian) was greater than 100 µM, the TGI (MDA-MB-231 breast) was greater than 100 µM and the TGI (SNB-75 CNS) was greater than 100 µM. The TGI (HCC-2998 colon) was greater than 100 µM, the TGI (OVCAR-8 ovarian) was greater than 100 µM and the TGI (SF-295 CNS) was greater than 100 µM. For the same compound, the TGI (MDA-MB-435) was greater than 100 µM, the TGI (NCI-H226 lung) was greater than 100 µM and the TGI (UO-31 renal) was greater than 100 µM. For the same compound, the TGI (HCT-15 colon) was greater than 100 µM, the TGI (UACC-62 melanoma) was greater than 100 µM and the TGI (RXF 393 renal) was greater than 100 µM. It also gave a TGI (OVCAR-5 ovarian) greater than 100 µM, a TGI (SNB-19 CNS) greater than 100 µM and a TGI (M14 melanoma) greater than 100 µM. The TGI (SK-MEL-5 melanoma) was greater than 100 µM, the TGI (HOP-62 NSCLC) was greater than 100 µM and the TGI (HT29 colon) was greater than 100 µM. For the same compound, the TGI (SR leukemia) was greater than 100 µM, the TGI (NCI-H522 lung) was greater than 100 µM and the TGI (HS 578T breast) was greater than 100 µM.
